{"source": "PubChem BioAssay AID1259407", "about": "(Chemical Carcinogenesis Research Information System (CCRIS), 2018)", "test_system": "CCRIS mutagenicity, Ames/micronucleus/aberration tests", "assay": "CCRIS mutagenicity studies", "key": {"[1]": {"details": "Test System: AMES SALMONELLA TYPHIMURIUM, Strain/Indicator: TA98, Metabolic Activation: NONE, Method: PREINCUBATION"}, "[2]": {"details": "Test System: AMES SALMONELLA TYPHIMURIUM, Strain/Indicator: TA100, Metabolic Activation: NONE, Method: PREINCUBATION"}, "[3]": {"details": "Test System: AMES SALMONELLA TYPHIMURIUM, Strain/Indicator: TA98, Metabolic Activation: NONE, Method: STANDARD PLATE"}, "[4]": {"details": "Test System: AMES SALMONELLA TYPHIMURIUM, Strain/Indicator: TA98, Metabolic Activation: RAT, LIVER, S-9, AROCLOR 1254, Method: STANDARD PLATE"}, "[5]": {"details": "Test System: AMES SALMONELLA TYPHIMURIUM, Strain/Indicator: TA100, Metabolic Activation: NONE, Method: STANDARD PLATE"}, "[6]": {"details": "Test System: AMES SALMONELLA TYPHIMURIUM, Strain/Indicator: TA100, Metabolic Activation: RAT, LIVER, S-9, Method: STANDARD PLATE"}, "[7]": {"details": "Test System: AMES SALMONELLA TYPHIMURIUM, Strain/Indicator: TA102, Metabolic Activation: NONE, Method: STANDARD PLATE"}, "[8]": {"details": "Test System: AMES SALMONELLA TYPHIMURIUM, Strain/Indicator: TA1535, Metabolic Activation: NONE, Method: STANDARD PLATE"}}, "note": "Calls of active or inactive are those of the source. How the calls were made is not given here.", "data": [{"smiles": "C=CC(=O)OCCBr", "values": [{"measurement": "mutagenic call", "setting": "Test System: AMES SALMONELLA TYPHIMURIUM, Strain/Indicator: TA97, Metabolic Activation: HAMSTER, LIVER, S-9, AROCLOR 1254 (10%), Method: PREINCUBATION", "value": "inactive; negative"}, {"measurement": "mutagenic call", "setting": "Test System: AMES SALMONELLA TYPHIMURIUM, Strain/Indicator: TA97, Metabolic Activation: NONE, Method: PREINCUBATION", "value": "inactive; negative"}, {"measurement": "mutagenic call", "setting": "Test System: AMES SALMONELLA TYPHIMURIUM, Strain/Indicator: TA97, Metabolic Activation: RAT, LIVER, S-9, AROCLOR 1254 (10%), Method: PREINCUBATION", "value": "inactive; negative"}, {"measurement": "mutagenic call", "setting": "Test System: AMES SALMONELLA TYPHIMURIUM, Strain/Indicator: TA98, Metabolic Activation: HAMSTER, LIVER, S-9, AROCLOR 1254 (10%), Method: PREINCUBATION", "value": "inactive; negative"}, {"measurement": "mutagenic call", "setting": "[1]", "value": "inactive; negative"}, {"measurement": "mutagenic call", "setting": "Test System: AMES SALMONELLA TYPHIMURIUM, Strain/Indicator: TA98, Metabolic Activation: RAT, LIVER, S-9, AROCLOR 1254 (10%), Method: PREINCUBATION", "value": "inactive; negative"}, {"measurement": "mutagenic call", "setting": "Test System: AMES SALMONELLA TYPHIMURIUM, Strain/Indicator: TA100, Metabolic Activation: HAMSTER, LIVER, S-9, AROCLOR 1254 (10%), Method: PREINCUBATION", "value": "active; positive"}, {"measurement": "mutagenic call", "setting": "[2]", "value": "inactive; negative"}, {"measurement": "mutagenic call", "setting": "Test System: AMES SALMONELLA TYPHIMURIUM, Strain/Indicator: TA100, Metabolic Activation: RAT, LIVER, S-9, AROCLOR 1254 (10%), Method: PREINCUBATION", "value": "active; positive"}, {"measurement": "mutagenic call", "setting": "Test System: AMES SALMONELLA TYPHIMURIUM, Strain/Indicator: TA1535, Metabolic Activation: HAMSTER, LIVER, S-9, AROCLOR 1254 (10%), Method: PREINCUBATION", "value": "active; positive"}, {"measurement": "mutagenic call", "setting": "Test System: AMES SALMONELLA TYPHIMURIUM, Strain/Indicator: TA1535, Metabolic Activation: NONE, Method: PREINCUBATION", "value": "active; positive"}, {"measurement": "mutagenic call", "setting": "Test System: AMES SALMONELLA TYPHIMURIUM, Strain/Indicator: TA1535, Metabolic Activation: RAT, LIVER, S-9, AROCLOR 1254 (10%), Method: PREINCUBATION", "value": "active; positive"}]}, {"smiles": "S=C1SSC2=NCCN12", "values": [{"measurement": "mutagenic call", "setting": "Test System: AMES SALMONELLA TYPHIMURIUM, Strain/Indicator: TA97, Metabolic Activation: NONE, Method: STANDARD PLATE", "value": "inactive; negative"}, {"measurement": "mutagenic call", "setting": "Test System: AMES SALMONELLA TYPHIMURIUM, Strain/Indicator: TA97, Metabolic Activation: RAT, LIVER, S-9, AROCLOR 1254, Method: STANDARD PLATE", "value": "inactive; negative"}, {"measurement": "mutagenic call", "setting": "[3]", "value": "inactive; negative"}, {"measurement": "mutagenic call", "setting": "[4]", "value": "inactive; negative"}, {"measurement": "mutagenic call", "setting": "[5]", "value": "inactive; negative"}]}, {"smiles": "CCCCCC/C=C\\CCCCCCOC(C)=O", "values": [{"measurement": "mutagenic call", "setting": "[3]", "value": "inactive; negative"}, {"measurement": "mutagenic call", "setting": "Test System: AMES SALMONELLA TYPHIMURIUM, Strain/Indicator: TA98, Metabolic Activation: RAT, LIVER, S-9, Method: STANDARD PLATE", "value": "inactive; negative"}, {"measurement": "mutagenic call", "setting": "[5]", "value": "inactive; negative"}, {"measurement": "mutagenic call", "setting": "[6]", "value": "inactive; negative"}, {"measurement": "mutagenic call", "setting": "[7]", "value": "inactive; negative"}, {"measurement": "mutagenic call", "setting": "Test System: AMES SALMONELLA TYPHIMURIUM, Strain/Indicator: TA102, Metabolic Activation: RAT, LIVER, S-9, Method: STANDARD PLATE", "value": "inactive; negative"}]}, {"smiles": "O=[N+]([O-])c1cccc2csnc12", "values": [{"measurement": "mutagenic call", "setting": "[3]", "value": "active; positive"}, {"measurement": "mutagenic call", "setting": "[5]", "value": "active; positive"}, {"measurement": "mutagenic call", "setting": "Test System: AMES SALMONELLA TYPHIMURIUM, Strain/Indicator: TA100, Metabolic Activation: S-9, Method: STANDARD PLATE", "value": "active; positive"}, {"measurement": "mutagenic call", "setting": "[8]", "value": "active; positive"}, {"measurement": "mutagenic call", "setting": "Test System: AMES SALMONELLA TYPHIMURIUM, Strain/Indicator: TA1535, Metabolic Activation: S-9, Method: STANDARD PLATE", "value": "inactive; negative"}, {"measurement": "mutagenic call", "setting": "Test System: AMES SALMONELLA TYPHIMURIUM, Strain/Indicator: TA1537, Metabolic Activation: NONE, Method: STANDARD PLATE", "value": "active; positive"}, {"measurement": "mutagenic call", "setting": "Test System: AMES SALMONELLA TYPHIMURIUM, Strain/Indicator: TA1537, Metabolic Activation: S-9, Method: STANDARD PLATE", "value": "inactive; negative"}]}, {"smiles": "C1=CCCCC1", "values": [{"measurement": "mutagenic call", "setting": "[3]", "value": "inactive; negative"}, {"measurement": "mutagenic call", "setting": "Test System: AMES SALMONELLA TYPHIMURIUM, Strain/Indicator: TA98, Metabolic Activation: RAT LIVER S-9, SOVOL, Method: STANDARD PLATE", "value": "inactive; negative"}, {"measurement": "mutagenic call", "setting": "[5]", "value": "inactive; negative"}, {"measurement": "mutagenic call", "setting": "Test System: AMES SALMONELLA TYPHIMURIUM, Strain/Indicator: TA100, Metabolic Activation: RAT LIVER S-9, SOVOL, Method: STANDARD PLATE", "value": "inactive; negative"}, {"measurement": "mutagenic call", "setting": "Test System: Ames Salmonella typhimurium, Strain/Indicator: TA98, Metabolic Activation: None, Method: Preincubation", "value": "inactive; negative"}, {"measurement": "mutagenic call", "setting": "Test System: Ames Salmonella typhimurium, Strain/Indicator: TA98, Metabolic Activation: Rat, Liver, S9, Sodium phenobarbital and 5,6-benzoflavone (10%), Method: Preincubation", "value": "inactive; negative"}, {"measurement": "mutagenic call", "setting": "Test System: Ames Salmonella typhimurium, Strain/Indicator: TA100, Metabolic Activation: None, Method: Preincubation", "value": "inactive; negative"}, {"measurement": "mutagenic call", "setting": "Test System: Ames Salmonella typhimurium, Strain/Indicator: TA100, Metabolic Activation: Rat, Liver, S9, Sodium phenobarbital and 5,6-benzoflavone (10%), Method: Preincubation", "value": "inactive; negative"}, {"measurement": "mutagenic call", "setting": "Test System: Ames Salmonella typhimurium, Strain/Indicator: TA1535, Metabolic Activation: None, Method: Preincubation", "value": "inactive; negative"}, {"measurement": "mutagenic call", "setting": "Test System: Ames Salmonella typhimurium, Strain/Indicator: TA1535, Metabolic Activation: Rat, Liver, S9, Sodium phenobarbital and 5,6-benzoflavone (10%), Method: Preincubation", "value": "inactive; negative"}, {"measurement": "mutagenic call", "setting": "Test System: Ames Salmonella typhimurium, Strain/Indicator: TA1537, Metabolic Activation: None, Method: Preincubation", "value": "inactive; negative"}, {"measurement": "mutagenic call", "setting": "Test System: Ames Salmonella typhimurium, Strain/Indicator: TA1537, Metabolic Activation: Rat, Liver, S9, Sodium phenobarbital and 5,6-benzoflavone (10%), Method: Preincubation", "value": "inactive; negative"}, {"measurement": "mutagenic call", "setting": "Test System: Ames Salmonella typhimurium, Strain/Indicator: TA2637, Metabolic Activation: None, Method: Preincubation", "value": "active; positive"}, {"measurement": "mutagenic call", "setting": "Test System: Ames Salmonella typhimurium, Strain/Indicator: TA2637, Metabolic Activation: Rat, Liver, S9, Sodium phenobarbital and 5,6-benzoflavone (10%), Method: Preincubation", "value": "inactive; negative"}, {"measurement": "mutagenic call", "setting": "Test System: E. coli, Strain/Indicator: WP2uvrA/pKM101, Metabolic Activation: None, Method: Preincubation", "value": "inactive; negative"}, {"measurement": "mutagenic call", "setting": "Test System: E. coli, Strain/Indicator: WP2uvrA/pKM101, Metabolic Activation: Rat, Liver, S9, Sodium phenobarbital and 5,6-benzoflavone (10%), Method: Preincubation", "value": "inactive; negative"}]}, {"smiles": "O=S(=O)(O)c1ccc2cc(O)ccc2c1", "values": [{"measurement": "mutagenic call", "setting": "[1]", "value": "inactive; negative"}, {"measurement": "mutagenic call", "setting": "Test System: AMES SALMONELLA TYPHIMURIUM, Strain/Indicator: TA98, Metabolic Activation: RAT, LIVER, S-9, PHENOBARBITAL, Method: PREINCUBATION", "value": "inactive; negative"}, {"measurement": "mutagenic call", "setting": "[2]", "value": "inactive; negative"}, {"measurement": "mutagenic call", "setting": "Test System: AMES SALMONELLA TYPHIMURIUM, Strain/Indicator: TA100, Metabolic Activation: RAT, LIVER, S-9, PHENOBARBITAL, Method: PREINCUBATION", "value": "inactive; negative"}]}, {"smiles": "Cc1nc2c(C)c(C)c3c(nc(N)n3C)c2nc1C", "values": [{"measurement": "mutagenic call", "setting": "[4]", "value": "active; positive"}]}, {"smiles": "CCN(N)c1ccccc1", "values": [{"measurement": "mutagenic call", "setting": "[5]", "value": "active; positive"}, {"measurement": "mutagenic call", "setting": "Test System: AMES SALMONELLA TYPHIMURIUM, Strain/Indicator: TA100, Metabolic Activation: RAT, LIVER, S-9, AROCLOR 1254, Method: STANDARD PLATE", "value": "inactive; negative"}, {"measurement": "mutagenic call", "setting": "[7]", "value": "inactive; negative"}, {"measurement": "mutagenic call", "setting": "Test System: AMES SALMONELLA TYPHIMURIUM, Strain/Indicator: TA102, Metabolic Activation: RAT, LIVER, S-9, AROCLOR 1254, Method: STANDARD PLATE", "value": "active; positive"}]}, {"smiles": "CCOS(=O)(=O)c1ccc(C)cc1", "values": [{"measurement": "mutagenic call", "setting": "End Point: IN VITRO MICRONUCLEUS, Test System: MOUSE LYMPHOMA L5178Y CELLS, Metabolic Activation: NONE", "value": "active; positive"}, {"measurement": "mutagenic call", "setting": "End Point: IN VITRO MICRONUCLEUS, Test System: MOUSE LYMPHOMA L5178Y CELLS, Metabolic Activation: RAT, LIVER, S-9", "value": "active; positive"}, {"measurement": "mutagenic call", "setting": "End Point: In vitro micronucleus, Test System: Chinese Hamster Ovary (CHO-WBL) cells, Metabolic Activation: None", "value": "active; positive (p<0.01)"}, {"measurement": "mutagenic call", "setting": "[5]", "value": "inactive; negative; authors describe results as weakly positive"}, {"measurement": "mutagenic call", "setting": "[6]", "value": "inactive; negative; authors describe results as weakly positive"}, {"measurement": "mutagenic call", "setting": "[8]", "value": "active; positive"}, {"measurement": "mutagenic call", "setting": "Test System: UDS HUMAN FIBROBLASTS, Strain/Indicator: THY INCORP (NON-S-PHASE), Metabolic Activation: NONE, Method: LIQUID SCINTILLATION COUNTING", "value": "active; positive"}]}]}
